Assay results published in patent publication US20230324392A1, “METHODS AND COMPOSITIONS FOR TARGETING CYTOSOLIC DSDNA SIGNALING IN CHROMOSOMALLY UNSTABLE CANCERS” (MEMORIAL SLOAN KETTERING CANCER CENTER, priority 2020, published 2023).
“And” between values parts separate entries of the source, which are not always exact repeats. Equal values may be shown once.

Key:
B16F10, 4T1, and CT26 = assay: Wound scratch assay for cell migration; assay type: cell-based, mouse; conditions: C176 at 1 μM; all three metastatic cancer cell lines
Experimental: Wound scratch assay for cell migration: Tumor cell lines B16F10, 4T1, and CT26 were seeded in 6 well plates. When cells reached>90% confluence they were treated with 0.5 μM mitomycin C (M4287, Sigma-Aldrich, St. Louis, MO) for 2 hours, after which a wound was formed using a sterile p200 pipette tip. Thereafter cells were washed once with fresh media, following by treatment with C176 at 1 μM (Probechem, China) or DMSO control in media containing 1% FBS. Images were obtained at 0, 4, 8, and 12 hours using Olympus CKX53 microscope at 4× magnification. The wound surface area was measured and quantified using ImageJ software (MRI Wound Healing tool-dev.mri.cnrs.fr/projects/imagej-macros/wiki/Wound_Healing_Tool).

B16F10 cells [1] = assay: Tail vein inoculation of B16F10 cells in C57BL/6 mice, survival; assay type: in vivo, mouse
Experimental: (§1) Animal metastasis studies: Animal experiments were performed in accordance with protocols approved by the MSKCC Institutional Animal Care and Use Committee. […] There was no need to randomize animals. Investigators were not blinded to group allocation. For tail vein injections, 5×10^4 4T1, 2.5×10^4 B16F10, or 10^5 CT26 cells were injected into the tail vein of 6-7-week old BALB/c (4T1 and CT26) or C57BL/6 (B16F10) mice. Metastasis was primarily assessed through overall survival. Overall survival endpoint was met when the mice died or met the criteria for euthanasia under the IACUC protocol. […] Surface lung metastases were assessed at endpoint by direct visual examination after euthanasia at which points lungs were perfused and fixed in 4% paraformaldehyde (4T1 and B16F10 experiments) or stained using India-ink (CT26 experiments). Furthermore, lung metastasis after injection of 4T1 cells was qualitatively assessed using routine hematoxylin and eosin (H&E) staining. […] Primary tumors were surgically excised on day 7 after implantation and metastatic dissemination was assessed by monitoring overall survival or on day 30 through quantification of surface lung metastases upon euthanasia. The length (L) and width (W) of the primary tumors were measured using calipers. Tumor size was calculated according to the following formula: L*W2/2. […]

4T1 cells = assay: Tail vein inoculation of 4T1 cells in BALB/c mice, survival; assay type: in vivo, mouse; conditions: 4T1, BALB/c, daily IP, vs vehicle
Experimental: as §1

4T1 primary tumor = assay: Orthotopically transplanted primary 4T1 tumors, tumor size; assay type: in vivo, mouse; conditions: orthotopic, vs vehicle
Experimental: as §1

[2] = Blood chemistry of mice treated with C-176; assay type: in vivo, mouse; conditions: animals 1, 2
B16F10 cells [3] = conditions: 1 μM C-176, 48 hours
Experimental: RNA was extracted using the RNeasy Mini Kit (Qiagen, Hilden, Germany, 74104). Non-strand-specific paired end sequencing libraries were generated with TruSeq Stranded mRNA (Illumina, San Diego, CA, 20020594) and sequenced on the Illumina NovaSeq platform. Reads were mapped to the mouse reference GRCm38 with the Broad Picard Pipeline (broadinstitute.github.io/picard/). […] Differential analysis was performed by DESeq2 (v1.24.0) as described by Love, M. I., et al., Genome Biol. 15: 550 (2014), the totality of which is incorporated herein by reference. Gene set enrichment analysis was performed on the normalized reads estimated by DESeq2.

O=C(Nc1ccc(I)cc1)c1ccc([N+](=O)[O-])o1 [C-176]
migration (B16F10, 4T1, and CT26): significant reductions
survival of tumor bearing mice (B16F10 cells [1]; B16F10, C57BL/6, daily IP, vs vehicle): significantly prolonged survival
treated group with no evidence of disease (B16F10 cells [1]; B16F10-bearing animals, at 98 days): ~30%
survival of tumor bearing mice (4T1 cells): significantly prolonged survival
4T1 primary tumor size (4T1 primary tumor): did not have a significant impact
A/G Ratio [2]: 1.3 and 1.4
Anion Gap [2]: 26 and 32
BASELINE CORTISOL [2]: 0.811 and 0.662
BUN/CREA Ratio [2]: 85.0 and 84.2
DBIL [2]: 0.0 mg/dL
GGT [2]: 0 U/L
IBIL [2]: 0.1
Na/K [2]: 19 and 16
TCO2 [2]: 24 mEq/L and 18 mEq/L
CREA ([2]; reference range 0.2-0.5): 0.20 mg/dL and 0.19 mg/dL
TBIL ([2]; reference range 0.2-0.6): 0.1 mg/dL
GLOB ([2]; reference range 1.7-2.2): 2.3 g/dL and 1.9 g/dL
ALB ([2]; reference range 2.4-4.3): 3.1 g/dL and 2.6 g/dL
TP ([2]; reference range 4.8-7.2): 5.4 g/dL and 4.5 g/dL
BUN ([2]; reference range 5.0-28): 17 mg/dL and 16 mg/dL
K ([2]; reference range 7.3-11.1): 8.1 mEq/L and 9.7 mEq/L
Ca ([2]; reference range 9.5-12.5): 10.0 mg/dL and 9.9 mg/dL
ALT ([2]; reference range 27-195): 26 U/L and 32 U/L
AST ([2]; reference range 54-77): 134 U/L and 69 U/L
CHOL ([2]; reference range 55-169): 103 mg/dL and 93 mg/dL
TRIG ([2]; reference range 67-289): 82 mg/dL and 80 mg/dL
ALP ([2]; reference range 105-370): 61 U/L and 40 U/L
CL ([2]; reference range 111-134): 115 mEq/L and 113 mEq/L
Na ([2]; reference range 145-181): 157 mEq/L and 153 mEq/L
GLU ([2]; reference range 172-372): 205 mg/dL and 210 mg/dL
baseline expression of inflammation-related genes (Ccl5, Cxcl10, Isg15) (B16F10 cells [3]): significant reductions
expression of STING-dependent genes (B16F10 cells [3]): significantly reduced
gene set enrichment analysis (GSEA) pathways (B16F10 cells [3]): downregulation of pathways related to inflammation and of genes involved in the epithelial-to-mesenchymal transition (EMT)
